Results from patent US20240270692A1, “S(+) FORM OF 4-(2,4-DIFLUOROPHENYL)-2-(1H-INDOL-3-YL)-4-OXO-BUTANOIC ACID” (TOHOKU UNIVERSITY, priority 2021, published 2024).

Tests used:
immt-1/mitofilin mutant = assay: Evaluation of mitochondrial function: mitochondrial swelling in body wall muscle cells; type: in vivo, C. elegans; settings: immt-1/mitofilin mutants, 10 μM, raised 5 days from L4 larval stage, compared with control DMSO
Experimental: It has been reported that in immt-1-deficient mutant C. elegans (hereinafter referred to as “immt-1/mitofilin mutant”), which is a C. elegans ortholog of the mitochondrial inner membrane protein (Mitofilin), mitochondria in muscle cells swell (see the literature “Journal of Cellular Physiology. 224 (2010) 748-756” and the literature “Molecular Biology of the Cell. 22 (2011) 831-841.”). Therefore, when three compounds (racemic form of MA5, S(+) form of MA5, or R(−) form of MA5) were administered to immt-1/mitofilin mutants, whether or not mitochondrial swelling was alleviated was analyzed.
As a comparative control, ccIs4251 wild-type C. elegans (obtained from CGC [Caenorhabditis Genetics Center]) was raised on a culture plate and analyzed in the same manner.

[1] = molecular target: T1, nicotinamide phosphoribosyltransferase (Nampt) (Homo sapiens, UniProt P43490); assay: Nampt binding test (Octet K2); settings: for binding to Nampt: Octet K2, biotin Nampt
T1 construct: biotin (biotinylated protein)
Experimental: The binding of the S(+) form of MA5 and the R(−) form of MA5 to nicotinamide phosphoribosyltransferase (Nampt), which is a key enzyme of the mammalian NAD^+ synthesis system, was measured by using Octet K2.
A 0.01% DDM PBS solution was prepared as a measurement buffer. 1 μL of biotin Nampt was added to 1000 μL of the measurement buffer. This was diluted 2-fold to obtain a 0.4 ng/μL ligand solution. A DMSO solution of a 100 mM MA5 S(+) form was diluted from 300 µM to 1000 μM, a DMSO solution of a 100 mM MA5 R(−) form was diluted from 500 μM to 1200 μM, and the diluted solutions were each used as an analyte solution. 200 μL each of the measurement buffer, a 1 μM biotin solution, a ligand solution, a 100 μM biocytin solution, and the analyte solution were added to a 96-well plate, and the plate was set in Octet K2 to carry out the measurement. Data were analyzed by using the accompanying software. Kd values were represented graphically with Prism 9 by using the concentrations of the analyte solution and the numerical values of Req (nm) calculated by the analysis.

[2] = Physical properties: coloration and degradation of dissolution solutions; type: physicochemical
[3] = Physical properties: solubility in solvents; type: physicochemical

T1 sequence (P43490 whole entry, species assumed): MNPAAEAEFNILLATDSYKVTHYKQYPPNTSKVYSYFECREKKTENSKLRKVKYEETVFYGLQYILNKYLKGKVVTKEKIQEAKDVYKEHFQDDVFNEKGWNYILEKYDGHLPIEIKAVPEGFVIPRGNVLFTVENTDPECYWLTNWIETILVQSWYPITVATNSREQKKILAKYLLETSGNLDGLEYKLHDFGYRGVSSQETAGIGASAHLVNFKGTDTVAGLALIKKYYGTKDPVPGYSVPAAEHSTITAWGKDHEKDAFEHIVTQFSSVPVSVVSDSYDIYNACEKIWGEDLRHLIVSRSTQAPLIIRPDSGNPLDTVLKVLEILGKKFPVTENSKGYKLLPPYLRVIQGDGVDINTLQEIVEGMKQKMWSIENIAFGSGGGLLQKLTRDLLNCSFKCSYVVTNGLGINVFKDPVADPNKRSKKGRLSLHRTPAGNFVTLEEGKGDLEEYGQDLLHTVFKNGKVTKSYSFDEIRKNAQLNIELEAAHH

SMILES | number of swelling mitochondria per body wall muscle cell (immt-1/mitofilin mutant) | proportion of body wall muscle cells in which 5 or more swelling mitochondria per body wall muscle cell were observed (immt-1/mitofilin mutant) | binding to Nampt [1] | binding to Nampt ([1]; listed as R(−) form) | degradation product on silica gel TLC plate ([2]; alcohol-chloroform dissolution solution) | degradation product on silica gel TLC plate ([2]; dissolution solution developed immediately) | degradation product on silica gel TLC plate ([2]; dissolution solution spotted and developed after some time) | coloration of dissolution solution ([2]; ethanol, isopropanol, acetone, acetonitrile, ethyl acetate, 50% acetonitrile aqueous solution, or 0.1% formic acid-containing acetonitrile solution, refrigerated for about a week) | degradation product on silica gel TLC plate ([2]; ethyl acetate dissolution solution) | stability under a light, acid, or alkali condition ([2]; light, acid, or alkali condition) | coloration of dissolution solution ([2]; methanol, dichloromethane, chloroform, 50% methanol aqueous solution, or 0.1% formic acid-containing methanol solution, refrigerated for about a week) | coloration of dissolution solution ([2]; mixed solvent of an alcohol (methanol, ethanol, or isopropanol) and chloroform, the day after preparation) | Kd ([1]; NAMPT, Octet K2) [µM] | solubility ([3]; in a 50% acetonitrile aqueous solution) | solubility ([3]; in a 50% methanol aqueous solution) | solubility ([3]; in acetone, acetonitrile, ethyl acetate, chloroform, dichloromethane, methanol, ethanol, and isopropanol)
O=C(C[C@@H](C(=O)O)c1c[nH]c2ccccc12)c1ccc(F)cc1F [R(−) form of MA5, 4-(2,4-difluorophenyl)-2-(1H-indol-3-yl)-4-oxo-butanoic acid] | remained almost unchanged or only slightly decreased | remained almost unchanged or only slightly decreased | did not bind to NAMPT | does not bind to Nampt | – | – | – | – | – | – | – | – | – | – | – | –
O=C(C[C@H](C(=O)O)c1c[nH]c2ccccc12)c1ccc(F)cc1F [S(+) form of MA5, 4-(2,4-difluorophenyl)-2-(1H-indol-3-yl)-4-oxo-butanoic acid] | greatly decreased | greatly decreased | binds to Nampt | – | a large amount of a degradation product was generated | no degradation product was generated | a degradation product appeared | does not become colored | not easily generated | undergoes coloration and degradation | colored pale yellow | colored yellow | 58.9 | slightly soluble | sparingly soluble | easily soluble
